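How tested: cells in 96-well plates exposed to compound for 48 hours at five concentrations. GI50 marks 50% less growth.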 Active and inactive are the calls of the source. No stated cut-off is given here; in the data, active = GI50 up to about 1.1 µM and inactive = higher.
Tests used:
Test in all cases: NCI-60 cell line screen, 48 h
[1] = tested on: KM12
[2] = tested on: LOX IMVI
[3] = tested on: HCT-15
[4] = tested on: NCI-H23
[5] = tested on: MCF7
[6] = tested on: SW-620
[7] = tested on: SR
[8] = tested on: IGROV-1
[9] = tested on: SK-OV-3
[10] = tested on: OVCAR-8
[11] = tested on: DU-145
[12] = tested on: A498
[13] = tested on: HOP-62
[14] = tested on: K562
[15] = tested on: HL-60
[16] = tested on: PC-3
[17] = tested on: NCI-H226
[18] = tested on: SN12C
[19] = tested on: SNB-19
[20] = tested on: CAKI-1
[21] = tested on: HCT-116
[22] = tested on: RPMI-8226
[23] = tested on: SNB-75
[24] = tested on: MDA-N
[25] = tested on: SK-MEL-28
[26] = tested on: COLO 205
[27] = tested on: NCI-H522
[28] = tested on: MDA-MB-435
[29] = tested on: EKVX
[30] = tested on: UACC-62
[31] = tested on: UACC-257
[32] = tested on: T47D
[33] = tested on: HCC 2998
[34] = tested on: ACHN
[35] = tested on: MDA-MB-231
[36] = tested on: Hs-578T
[37] = tested on: OVCAR-3
[38] = tested on: NCI-H460
[39] = tested on: HT-29
[40] = tested on: U-251
[41] = tested on: SF-268
[42] = tested on: Malme-3M
[43] = tested on: MOLT-4
[44] = tested on: 786-0
[45] = tested on: BT-549
[46] = tested on: SK-MEL-2
[47] = tested on: SF-539
[48] = tested on: CCRF-CEM
[49] = tested on: UO-31
[50] = tested on: SF-295
[51] = tested on: A549
[52] = tested on: OVCAR-4
[53] = tested on: OVCAR-5
[54] = tested on: TK-10
[55] = tested on: NCI/ADR-RES
[56] = tested on: M14
[57] = tested on: HOP-92
[58] = tested on: RXF 393
[59] = tested on: SK-MEL-5

Q: With CCOC(=O)C1(Cc2ccc3c(c2)CCC3)Cc2cc3c(cc2C1)CCC3 as the compound, how does the GI50 [1] read?
A: 40.7 µM (inactive)

Q: And the GI50 [2]?
A: 15.4 µM (inactive)

Q: What about the GI50 [3] of the same compound?
A: 32 µM

Q: What about the GI50 [4] of the same compound?
A: 35.7 µM (inactive)

Q: What about the GI50 [5] of the same compound?
A: 16.4 µM (inactive)

Q: And the GI50 [6]?
A: 23.9 µM (inactive)

Q: What about the GI50 [7] of the same compound?
A: 23.9 µM (inactive)

Q: And the GI50 [8]?
A: 46.8 µM (inactive)

Q: And the GI50 [9]?
A: 24.7 µM (inactive)

Q: What about the GI50 [10] of the same compound?
A: 42.5 µM (inactive)

Q: And the GI50 [11]?
A: 53 µM (inactive)

Q: What about the GI50 [12] of the same compound?
A: 37.5 µM (inactive)

Q: What about the GI50 [13] of the same compound?
A: 32.9 µM (inactive)

Q: And the GI50 [14]?
A: 15.2 µM (inactive)

Q: What about the GI50 [15] of the same compound?
A: > 100 µM (inactive)

Q: And the GI50 [16]?
A: 21.9 µM (inactive)

Q: What about the GI50 [17] of the same compound?
A: 31.6 µM (inactive)

Q: What about the GI50 [18] of the same compound?
A: 27.8 µM (inactive)

Q: What about the GI50 [19] of the same compound?
A: 36.7 µM (inactive)

Q: What about the GI50 [20] of the same compound?
A: 45.7 µM (inactive)

Q: What about the GI50 [21] of the same compound?
A: 25.5 µM (inactive)

Q: And the GI50 [22]?
A: 14.6 µM (inactive)

Q: What about the GI50 [23] of the same compound?
A: 75.5 µM (inactive)

Q: What about the GI50 [24] of the same compound?
A: 37 µM (inactive)

Q: And the GI50 [25]?
A: 39.4 µM (inactive)

Q: What about the GI50 [26] of the same compound?
A: 33.9 µM (inactive)

Q: What about the GI50 [27] of the same compound?
A: 25.1 µM (inactive)

Q: What about the GI50 [28] of the same compound?
A: 35.7 µM (inactive)

Q: And the GI50 [29]?
A: 47.6 µM (inactive)

Q: What about the GI50 [30] of the same compound?
A: 30.6 µM (inactive)

Q: What about the GI50 [31] of the same compound?
A: 23.7 µM (inactive)

Q: And the GI50 [32]?
A: 17.7 µM (inactive)

Q: What about the GI50 [33] of the same compound?
A: 22.6 µM (inactive)

Q: What about the GI50 [34] of the same compound?
A: 33.7 µM (inactive)

Q: What about the GI50 [35] of the same compound?
A: 28.1 µM (inactive)

Q: What about the GI50 [36] of the same compound?
A: 34.8 µM (inactive)

Q: What about the GI50 [37] of the same compound?
A: 32.4 µM (inactive)

Q: And the GI50 [38]?
A: 27.5 µM (inactive)

Q: What about the GI50 [39] of the same compound?
A: 6.46 µM (inactive)

Q: And the GI50 [40]?
A: 32.3 µM (inactive)

Q: What about the GI50 [41] of the same compound?
A: 53.2 µM (inactive)

Q: What about the GI50 [42] of the same compound?
A: 27.2 µM (inactive)

Q: And the GI50 [43]?
A: 11.5 µM (inactive)

Q: And the GI50 [44]?
A: 29.6 µM (inactive)

Q: What about the GI50 [45] of the same compound?
A: 90.4 µM (inactive)

Q: What about the GI50 [46] of the same compound?
A: 32.6 µM (inactive)

Q: And the GI50 [47]?
A: 29.7 µM (inactive)

Q: What about the GI50 [48] of the same compound?
A: 13.9 µM (inactive)

Q: What about the GI50 [49] of the same compound?
A: 49 µM (inactive)

Q: And the GI50 [50]?
A: 25.1 µM (inactive)

Q: What about the GI50 [51] of the same compound?
A: 35.9 µM (inactive)

Q: What about the GI50 [52] of the same compound?
A: 28 µM (inactive)

Q: What about the GI50 [53] of the same compound?
A: 45.6 µM (inactive)

Q: And the GI50 [54]?
A: > 100 µM (inactive)

Q: And the GI50 [55]?
A: 78.5 µM (inactive)

Q: What about the GI50 [56] of the same compound?
A: 21.5 µM (inactive)

Q: Which GI50 [1] does the source give for Cc1ccc(SCN2CCCCC2)cc1.O=C(Cl)c1ccc([N+](=O)[O-])cc1 here?
A: 10.8 µM (inactive)

Q: And the GI50 [57]?
A: 9.18 µM (inactive)

Q: What about the GI50 [2] of the same compound?
A: 2.97 µM (inactive)

Q: And the GI50 [3]?
A: 9.77 µM

Q: And the GI50 [4]?
A: 8.22 µM (inactive)

Q: And the GI50 [5]?
A: 6.55 µM (inactive)

Q: And the GI50 [6]?
A: 18.5 µM (inactive)

Q: What about the GI50 [7] of the same compound?
A: 4.24 µM (inactive)

Q: And the GI50 [8]?
A: 3.3 µM (inactive)

Q: And the GI50 [9]?
A: 12.9 µM (inactive)

Q: And the GI50 [10]?
A: 25.9 µM (inactive)

Q: What about the GI50 [11] of the same compound?
A: 13.7 µM (inactive)

Q: What about the GI50 [12] of the same compound?
A: 2.76 µM (inactive)

Q: What about the GI50 [13] of the same compound?
A: 16.2 µM (inactive)

Q: And the GI50 [14]?
A: 13.8 µM (inactive)

Q: What about the GI50 [15] of the same compound?
A: 1.67 µM (inactive)

Q: What about the GI50 [16] of the same compound?
A: 12.2 µM (inactive)

Q: What about the GI50 [58] of the same compound?
A: 6.15 µM (inactive)

Q: And the GI50 [17]?
A: 16.6 µM (inactive)

Q: And the GI50 [18]?
A: 4.31 µM (inactive)

Q: And the GI50 [19]?
A: 19.2 µM (inactive)

Q: What about the GI50 [20] of the same compound?
A: 8.87 µM (inactive)

Q: What about the GI50 [21] of the same compound?
A: 10.9 µM (inactive)

Q: What about the GI50 [22] of the same compound?
A: 5.78 µM (inactive)

Q: What about the GI50 [23] of the same compound?
A: 9.42 µM (inactive)

Q: What about the GI50 [24] of the same compound?
A: 6.25 µM (inactive)

Q: And the GI50 [25]?
A: 13.4 µM (inactive)

Q: What about the GI50 [26] of the same compound?
A: 4.86 µM (inactive)

Q: And the GI50 [27]?
A: 1.92 µM (inactive)

Q: What about the GI50 [28] of the same compound?
A: 10.1 µM (inactive)

Q: And the GI50 [29]?
A: 11.8 µM (inactive)

Q: What about the GI50 [30] of the same compound?
A: 13.7 µM (inactive)

Q: What about the GI50 [31] of the same compound?
A: 14.6 µM (inactive)

Q: And the GI50 [32]?
A: 12.2 µM (inactive)

Q: What about the GI50 [34] of the same compound?
A: 12.6 µM (inactive)

Q: What about the GI50 [35] of the same compound?
A: 13.2 µM (inactive)

Q: And the GI50 [36]?
A: 10.4 µM (inactive)

Q: What about the GI50 [37] of the same compound?
A: 12.9 µM (inactive)

Q: And the GI50 [39]?
A: 13.2 µM (inactive)

Q: What about the GI50 [40] of the same compound?
A: 11.2 µM (inactive)

Q: What about the GI50 [41] of the same compound?
A: 5.98 µM (inactive)

Q: What about the GI50 [42] of the same compound?
A: 13.1 µM (inactive)

Q: What about the GI50 [43] of the same compound?
A: 3.37 µM (inactive)

Q: And the GI50 [44]?
A: 15.1 µM (inactive)

Q: And the GI50 [59]?
A: 2.78 µM (inactive)

Q: What about the GI50 [45] of the same compound?
A: 1.9 µM (inactive)

Q: What about the GI50 [46] of the same compound?
A: 14.7 µM (inactive)

Q: What about the GI50 [48] of the same compound?
A: 2.03 µM (inactive)

Q: And the GI50 [49]?
A: 15.2 µM (inactive)

Q: And the GI50 [50]?
A: 16 µM (inactive)

Q: And the GI50 [51]?
A: 21.2 µM (inactive)

Q: And the GI50 [52]?
A: 12.4 µM (inactive)

Q: What about the GI50 [53] of the same compound?
A: 10.7 µM (inactive)

Q: And the GI50 [54]?
A: 19.4 µM (inactive)

Q: And the GI50 [55]?
A: 14 µM (inactive)

Q: What about the GI50 [56] of the same compound?
A: 17.8 µM (inactive)

Source: ChEMBL document CHEMBL1201862, “PubChem BioAssay data set” (2004)
